# Laboratory results from patent US9808419B2, “Medicinal treatment of dermal infectious disorders with norketotifen” (priority 2012, dated 2017).
# Read-outs that look alike come from different tables or passages of the source. Marks after values point to notes of the source that are not given here.
# What was measured:
# [1] = Solubility in non-aqueous topical formulation solvents; assay type: physicochemical
# Experimental: The hydrophobic ointment was prepared by dissolving norketotifen in propylene glycol. […] Next, glyceryl stearate, cetyl alcohol, and white petrolatum were added to a suitable container and heated to 65-70° C. This heating step melts the surfactants and the petrolatum. Next, norketotifen solution was slowly added and the composition mixed until the solvent was dispersed. Finally, the composition was cooled with mixing to allow the ointment to thicken. If needed, acidity can be adjusted by adding an acid solution or a base solution to obtain the preferred acidity. If needed, viscosity can be adjusted with a viscosity-modifying agent to obtain the preferred viscosity.
# [2] = test system: histamine-induced pruritus; experiment: Histamine-induced pruritus in mice, oral administration; assay type: in vivo
# Experimental: Antipruritic effects were tested in vivo in CD-1 female mice aged 10-12 weeks. The hair was clipped over the rostral part of the back at the interscapular level of the mice one day before dosing. Before testing, the mice were placed in individual clear plastic cages for at least one hour for acclimation. After fasting for 1.5 hours, the animals were dosed orally with the test article, dissolved in a vehicle consisting of 1% methylcellulose/water, 10 mL/kg body-weight. Sixty minutes after oral dosing, an intradermal injection of histamine (300 nmol in 20 μl phosphate buffered saline (PBS), pH 7.4) was administered into the clipped area. Immediately after the histamine injection, the bouts of scratches were counted for 40 minutes. Scratching induced by the histamine vehicle PBS served as control.
# Norketotifen was tested in escalating doses. In addition, a supramaximal dose of 100 mg/kg of norketotifen was tested. The reference compounds JNJ7777120, desloratadine and oclacitinib were dosed orally at 20 mg/kg. The vehicle for the reference compound JNJ7777120 was 20% hydroxypropyl-β-cyclodextrin in water. […]. The numbers of pruritic bouts for Norketotifen, DES and OCLA are expressed in percent of the same Vehicle (100% corresponds to 92 pruritic bouts). […] Scratches induced by the histamine-free vehicle PBS (not shown in Table 5) served as control (6±3 bouts of scratching; N=8)
# This test used histamine to induce pruritus. […] The histamine inhibitors are “inverse agonists” at both receptor types.
# mice = settings: for Sedated animals: mice, 60 min before physostigmine
# Experimental: Mice administered a sedating drug prior to the physostigmine injection are protected from the stress and survive. In the present study, test compounds were given orally 60 minutes prior to physostigmine injection. The number of surviving (sedated) mice was counted 30 minutes after injection of the physostigmine dose.
# [3] = test system: croton oil inflammatory response; experiment: Modified croton oil ear inflammation in mice, topical cream; assay type: in vivo; settings: cream containing 1.0 percent (w/w)
# Experimental: In order to investigate the effects of topical administration of the test compounds in dermal inflammation, a modified croton oil model was used. […] The cream was then removed and a solution of 1% croton oil in 20 μl acetone was applied to both ears. […] Cream was wiped from the ears and ears were removed and weighed. […] All results represent mean ear weights (±S.E.M.) from 8 ears.
# [4] = test system: histamine-induced pruritus; experiment: Histamine-induced pruritus in mice, topical cream; assay type: in vivo; settings: single topical application of 1.0 percent cream
# Experimental: Antipruritic effects were tested in vivo in CD-1 female mice aged 10-12 weeks, according to methods known in the art. The hair was clipped over the rostral part of the back at the interscapular level of the mice one day before dosing. Before testing, the mice were placed in individual clear plastic cages for at least one hour for acclimation. […] Lanolin was weighed and liquified by submerging the vessel containing lanolin in hot water. While the lanolin was liquid, it was rapidly nixed (by vortexing) with the 2.5% norketotifen solution in ethanol, resulting in a 1.0 percent solution. […] A cream containing 60% lanolin/40% ethanol served as control.
# [5] = test system: human leukocytes (buffy coat); experiment: Inhibition of A23187-stimulated histamine release from human leukocytes; assay type: cell-based
# Experimental: In these studies, histamine was the marker compound for inflammatory mediators that are released from mast cells and other pro-inflammatory cells in patients with atopic inflammatory diseases. The inhibition of stimulated histamine release from human leukocytes (buffy coat) by test articles was studied. Leukocytes were obtained from healthy volunteers and histamine release was induced by incubation (20 min/37° C.) with the calcium ionophore A23187 (5 μM) in the presence or absence of a test article. Histamine was analyzed by enzyme-immune assays, using commercially available kits and a microplate reader (MRX, Dynatech). The test articles were evaluated, in duplicate, at five concentrations.
# [6] = Formation of norketotifen by hepatic demethylation of ketotifen; settings: human patients, after an oral dose of one milligram ketotifen; calculated
# [7] = Acute toxicity in rats, Up-and-Down Procedure; settings: both sexes, Sprague-Dawley, in vivo, rat, hydrogen fumarate salts, read-out: Acute toxicity (estimated LD50)
# Experimental: Acute toxicological studies were performed in rats (Sprague-Dawley; M and F; 200-250 grams). The animal-sparing Up-and-Down Procedure, recommended by FDA and OECD, was used. Both oral and intravenous toxicity tests were performed.
# Both compounds were administered as hydrogen fumarate salts.
# histamine wheal response = experiment: Histamine-induced wheal (Evans blue) in rats, oral pretreatment; assay type: in vivo; settings: rat; for Saline wheal area: histamine vehicle injection
# Experimental: Male rats (150-200 g) were fasted overnight and twelve hours after dorsal depilation, the animals were orally pretreated with the test compound(s). Four dorsal test areas were marked with permanent ink, carefully avoiding the area closest to the spine. […] Two intradermal injections of the vehicle for the histamine solution were also performed. […] Twenty minutes were allowed for the wheal response to fully develop, whereupon the animals were euthanized and the dorsal skin with the intradermal wheals were deflected. The blue spotted areas were measured in square millimeters and the duplicate wheal areas were averaged. […] The inhibition was calculated in percent difference from said baseline values.
# Helicobacter pylori = experiment: Antimicrobial test; assay type: cell-based
# Candida albicans = experiment: Antimicrobial test; assay type: cell-based
# From the text: (§1) Several studies have been performed to evaluate possible antimicrobial activities of norketotifen. Shown here are the results from a standard microbiological test, where the results are expressed as MIC (Minimal Inhibitory Concentration) of the test article against selected exemplary dermal bacteria (such as for example Staphylococcus aureus) and dermal fungi (such as for example Malassezia sp) that are commonly found in human with dermal diseases. […] All the MIC-tests shown in Table 10 were performed in duplicates, using 10 concentrations of the test articles. […] The test culture tubes/plates were incubated in temperatures and durations appropriate for each microorganism (S. aureus: 36° C. and 24 hours; M. globosa: 30° C. and 24 hours).
# Malassezia pachydermatis = experiment: Antimicrobial test; assay type: cell-based
# From the text: as §1
# Staphylococcus aureus = experiment: Antimicrobial MIC test; assay type: cell-based; settings: MRSA or non-resistant S. aureus; 36° C. and 24 hours
# From the text: as §1
# Malassezia globosa = experiment: Antimicrobial MIC test; assay type: cell-based; settings: 30° C. and 24 hours
# From the text: as §1
# [8] = oral 20 mg/kg, vehicle 1% methylcellulose/water
smiles,measurement,setting,value
O=C1Cc2ccccc2C(=C2CCNCC2)c2ccsc21 (racemic) [Norketotifen],Solubility,"[1]; formulation G1009, mixture of two polyethylene glycols",about 1.0%
same,Solubility,[1]; in propylene glycol,about 1.0%
same,Bouts/40 min Mean ± SEM,[2]; oral 1 mg/kg,84.7 ± 11.6
same,Bouts as % of Vehicle Controls,"[2]; oral 1 mg/kg, 100% = 92 bouts",92%
same,Bouts/40 min Mean ± SEM,[2]; oral 3 mg/kg,34.1 ± 9.6
same,Bouts as % of Vehicle Controls,"[2]; oral 3 mg/kg, 100% = 92 bouts",37** %
same,Bouts/40 min Mean ± SEM,[2]; oral 10 mg/kg,17.8 ± 3.1
same,Bouts as % of Vehicle Controls,"[2]; oral 10 mg/kg, 100% = 92 bouts",19** %
same,Bouts/40 min Mean ± SEM,[2]; oral 100 mg/kg,8.3 ± 2.8
same,Bouts as % of Vehicle Controls,"[2]; oral 100 mg/kg, 100% = 92 bouts",9*** %
same,Inhibition of histamine-induced pruritus,[2]; oral supramaximal dose 100 mg/kg,complete inhibition
same,Sedated animals,mice; oral 83 mg/kg,3/10
same,Sedated animals,mice; oral 100 mg/kg,3/10
same,Sedated animals,mice; oral 150 mg/kg,3/10
same,Sedated animals,mice; oral 180 mg/kg,6/10
same,Sedative activity in mice,"mice; mouse, in vivo",expressed sedative activity
same,Inhibition of croton oil inflammation,[3],completely inhibited
same,Reduction of histamine-induced pruritus versus Vehicle Control,[4],58%
same,Potency as inhibitor of histamine release relative to ketotifen,[5],approximately 10 times
same,Norketotifen formed in the liver,[6],up to 0.5 mg
same,LD50,[7]; intravenous,10 to 15 mg/kg
same,LD50,[7]; oral,1500 to 2000 mg/kg
same,Saline wheal area,histamine wheal response; oral 1.0 mg/kg,22 ± 1 mm^2
same,Histamine wheal area,"histamine wheal response; oral 10 mg/kg, 60 min before intradermal histamine",39 ± 2 mm^2
same,Saline wheal area,histamine wheal response; oral 10 mg/kg,22 ± 1 mm^2
same,Saline wheal area,histamine wheal response; oral 50 mg/kg,12 ± 1 mm^2
same,Antimicrobial activity,Helicobacter pylori,potent antimicrobial activities
same,Antimicrobial activity,Candida albicans,potent antimicrobial activities
same,Antimicrobial activity,Malassezia pachydermatis,potent antimicrobial activities
"Clc1ccc2c(c1)CCc1cccnc1C2=C1CCNCC1 [DESLORATADINE, reference compound]",Bouts as % of Vehicle Controls,"[2]; oral 20 mg/kg, 100% = 92 bouts",122%
same,Bouts/40 min Mean ± SEM,[2]; [8],112.0 ± 14.5
same,Sedated animals,mice; oral 150 mg/kg,0/10
CN(C)CCOC(c1ccccc1)c1ccccc1 [DIPHENHYDRAMINE],Sedated animals,mice; oral 50 mg/kg,5/10
same,Sedated animals,mice; oral 100 mg/kg,8/10
OCCOCCN1CCN(C(c2ccccc2)c2ccc(Cl)cc2)CC1 (stereo not drawn) [HYDROXYZINE],Sedated animals,mice; oral 100 mg/kg,9/10
"CN1CCN(C(=O)c2cc3cc(Cl)ccc3[nH]2)CC1 [J&J7777120, reference compound]",Bouts/40 min Mean ± SEM,"[2]; oral 20 mg/kg, vehicle 20% hydroxypropyl-β-cyclodextrin",63.6 ± 11.7
same,Bouts as % of Vehicle Controls,"[2]; oral 20 mg/kg, versus vehicle for JNJ7777120 (112 bouts)",57* %
"CN1CCC(=C2c3ccccc3CC(=O)c3sccc32)CC1 [Ketotifen, 4-(1-methyl-4-piperidyline)-4H-benzo(4,5)-cyclohepta-(1,2-b) thiophene-10-one]",Sedated animals,mice; oral 25 mg/kg,5/10
same,Sedated animals,mice; oral 50 mg/kg,8/10
same,Sedated animals,mice; oral 100 mg/kg,10/10
same,LD50,[7]; intravenous,5 to 10 mg/kg
same,LD50,[7]; oral,< 300 mg/kg
CCOC(=O)N1CCC(=C2c3ccc(Cl)cc3CCc3cccnc32)CC1 [LORATADINE],Sedated animals,mice; oral 150 mg/kg,1/10
"CNS(=O)(=O)C[C@H]1CC[C@H](N(C)c2ncnc3[nH]ccc23)CC1 [Oclacitinib, reference compound]",Bouts as % of Vehicle Controls,"[2]; oral 20 mg/kg, 100% = 92 bouts",55* %
same,Bouts/40 min Mean ± SEM,[2]; [8],50.9 ± 18.7
COc1ccc(CN(CCN(C)C)c2ccccn2)cc1 [PYRILAMINE],Sedated animals,mice; oral 100 mg/kg,8/10
O=C1Cc2ccccc2C(=C2CCNCC2)c2ccsc21 [R-NORKETOTIFEN],Sedated animals,"mice; oral 100 mg/kg, 100 mg/kg",3/10
same,Sedated animals,"mice; oral 150 mg/kg, 150 mg/kg",3/10
O=C(O)/C=C/C(=O)O.O=C1Cc2ccccc2C(=C2CCNCC2)c2ccsc21 [R-norketotifen HF],S. aureus MIC,Staphylococcus aureus,1000 µg/mL
same,M. globosa MIC,Malassezia globosa,500 µg/mL
O=C(O)/C=C/C(=O)O.O=C1Cc2ccccc2C(=C2CCNCC2)c2ccsc21 [RS-norketotifen HF],S. aureus MIC,Staphylococcus aureus,500 µg/mL
same,M. globosa MIC,Malassezia globosa,250 µg/mL
O=C1Cc2ccccc2C(=C2CCNCC2)c2ccsc21 [S-NORKETOTIFEN],Sedated animals,"mice; oral 100 mg/kg, 100 mg/kg",0/10
same,Sedated animals,"mice; oral 150 mg/kg, 150 mg/kg",0/10
O=C(O)/C=C/C(=O)O.O=C1Cc2ccccc2C(=C2CCNCC2)c2ccsc21 [S-norketotifen HF],S. aureus MIC,Staphylococcus aureus,500 µg/mL
same,M. globosa MIC,Malassezia globosa,250 µg/mL
CC(C)(C)c1ccc(C(O)CCCN2CCC(C(O)(c3ccccc3)c3ccccc3)CC2)cc1 (stereo not drawn) [TERFENADINE],Sedated animals,mice; oral 150 mg/kg,0/10
